# Test results reported in PubChem BioAssay (NCI).
#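 Where inhibition never reached the appropriate level, the endpoint shown equals the highest concentration tested. Otherwise, values were interpolated linearly from a five-concentration, 48-hour dose response in 96-well plates. At the GI50, growth is halved. The concentration for full growth arrest is given as TGI.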
# Assays:
# Assay in all cases: NCI tumour cell line growth inhibition, 48 h
# [1] = system: SN12C renal
# [2] = system: OVCAR-5 ovarian
# [3] = system: SK-MEL-28 melanoma
# [4] = system: UACC-257 melanoma
# [5] = system: CCRF-CEM leukemia
# [6] = system: OVCAR-4 ovarian
# [7] = system: MDA-MB-231 breast
# [8] = system: SK-MEL-2 melanoma
# [9] = system: BT-549 breast
# [10] = system: DU-145 prostate
# [11] = system: HCC-2998 colon
# [12] = system: OVCAR-3 ovarian
# [13] = system: MOLT-4 leukemia
# [14] = system: ACHN renal
# [15] = system: SW-620 colon
# [16] = system: SNB-19 CNS
# [17] = system: 786-0 renal
# [18] = system: HS 578T breast
# [19] = system: MDA-MB-435
# [20] = system: A498 renal
# [21] = system: NCI-H460 lung
# [22] = system: SF-268 CNS
# [23] = system: OVCAR-8 ovarian
# [24] = system: HCT-15 colon
# [25] = system: HCT-116 colon
# [26] = system: A549 NSCLC
# [27] = system: SK-MEL-5 melanoma
# [28] = system: U251 CNS
# [29] = system: SNB-75 CNS
# [30] = system: SF-295 CNS
# [31] = system: NCI-H522 lung
# [32] = system: T-47D breast
# [33] = system: CAKI-1 renal
# [34] = system: KM12 colon
# [35] = system: NCI/ADR-RES ovarian
# [36] = system: UACC-62 melanoma
# [37] = system: EKVX NSCLC
# [38] = system: PC-3 prostate
# [39] = system: RXF 393 renal
# [40] = system: SK-OV-3 ovarian
# [41] = system: M14 melanoma
# [42] = system: TK-10 renal
# [43] = system: NCI-H23 lung
# [44] = system: NCI-H226 lung
# [45] = system: UO-31 renal
# [46] = system: HOP-62 NSCLC
# [47] = system: K-562 leukemia
# [48] = system: COLO 205 colon
# [49] = system: IGROV1 ovarian
# [50] = system: LOX IMVI melanoma
# [51] = system: HT29 colon
# [52] = system: SF-539 CNS
# [53] = system: HOP-92 NSCLC
# [54] = system: RPMI-8226 leukemia
# [55] = system: MCF7 breast
# [56] = system: HL-60(TB) leukemia
# [57] = system: MALME-3M melanoma
structure (smiles),measurement,setting,value
ClCc1ccc(Cn2cnc3c(Cl)nc(Cl)nc32)cc1,GI50,[1],7.18 µM
same,TGI,[1],20.8 µM
same,GI50,[2],18.2 µM
same,TGI,[2],34.5 µM
same,GI50,[3],2.69 µM
same,TGI,[3],6.99 µM
same,GI50,[4],16.3 µM
same,TGI,[4],33.5 µM
same,GI50,[5],1.94 µM
same,TGI,[5],4.53 µM
same,GI50,[6],4.91 µM
same,TGI,[6],18.8 µM
same,GI50,[7],1.81 µM
same,TGI,[7],3.63 µM
same,GI50,[8],19.8 µM
same,TGI,[8],43.5 µM
same,GI50,[9],15.8 µM
same,TGI,[9],29.8 µM
same,GI50,[10],5.69 µM
same,TGI,[10],17.8 µM
same,GI50,[11],10.3 µM
same,TGI,[11],24 µM
same,GI50,[12],1.99 µM
same,TGI,[12],4.33 µM
same,GI50,[13],10.4 µM
same,TGI,[13],27.4 µM
same,GI50,[14],2.35 µM
same,TGI,[14],5.28 µM
same,GI50,[15],3.79 µM
same,TGI,[15],17.3 µM
same,GI50,[16],2.5 µM
same,TGI,[16],7.04 µM
same,GI50,[17],14 µM
same,TGI,[17],29.5 µM
same,GI50,[18],2.13 µM
same,TGI,[18],5.77 µM
same,GI50,[19],12.6 µM
same,TGI,[19],25.1 µM
same,GI50,[20],12.1 µM
same,TGI,[20],25.1 µM
same,GI50,[21],2.39 µM
same,TGI,[21],4.92 µM
same,GI50,[22],2.51 µM
same,TGI,[22],5.42 µM
same,GI50,[23],20 µM
same,TGI,[23],38.3 µM
same,GI50,[24],1.86 µM
same,TGI,[24],3.77 µM
same,GI50,[25],1.72 µM
same,TGI,[25],3.6 µM
same,GI50,[26],18.6 µM
same,TGI,[26],37.1 µM
same,GI50,[27],6.49 µM
same,TGI,[27],19.2 µM
same,GI50,[28],2.05 µM
same,TGI,[28],3.88 µM
same,GI50,[29],3.13 µM
same,TGI,[29],9.32 µM
same,GI50,[30],7.2 µM
same,TGI,[30],19.5 µM
same,GI50,[31],22.4 µM
same,TGI,[31],46.8 µM
same,GI50,[32],2.18 µM
same,TGI,[32],5.44 µM
same,GI50,[33],9.17 µM
same,TGI,[33],21.3 µM
same,GI50,[34],1.8 µM
same,TGI,[34],3.23 µM
same,GI50,[35],16.5 µM
same,TGI,[35],> 100 µM
same,GI50,[36],2.06 µM
same,TGI,[36],4.4 µM
same,GI50,[37],17.3 µM
same,TGI,[37],31.8 µM
same,GI50,[38],2.7 µM
same,TGI,[38],7.17 µM
same,GI50,[39],20.9 µM
same,TGI,[39],41.5 µM
same,GI50,[40],13.3 µM
same,TGI,[40],29.6 µM
same,GI50,[41],10.8 µM
same,TGI,[41],24.1 µM
same,GI50,[42],6.68 µM
same,TGI,[42],20.3 µM
same,GI50,[43],7.62 µM
same,TGI,[43],23.2 µM
same,GI50,[44],3.55 µM
same,TGI,[44],9.63 µM
same,GI50,[45],19.3 µM
same,TGI,[45],35.5 µM
same,GI50,[46],2.19 µM
same,TGI,[46],5.09 µM
same,GI50,[47],23.3 µM
same,TGI,[47],66.5 µM
same,GI50,[48],3.45 µM
same,TGI,[48],> 100 µM
same,GI50,[49],15.3 µM
same,TGI,[49],30.4 µM
same,GI50,[50],2.06 µM
same,TGI,[50],4.13 µM
same,GI50,[51],2.9 µM
same,TGI,[51],> 100 µM
same,GI50,[52],17.1 µM
same,TGI,[52],31.1 µM
COc1cc2c3c(n(CCCN=[N+]=[N-])c(=O)c2cc1OC)-c1ccc(N(C)C)cc1C3=O,GI50,[1],> 100 µM
same,TGI,[1],> 100 µM
same,GI50,[2],> 100 µM
same,TGI,[2],> 100 µM
same,GI50,[3],> 100 µM
same,TGI,[3],> 100 µM
same,GI50,[4],> 100 µM
same,TGI,[4],> 100 µM
same,GI50,[5],> 100 µM
same,TGI,[5],> 100 µM
same,GI50,[6],> 100 µM
same,TGI,[6],> 100 µM
same,GI50,[7],> 100 µM
same,TGI,[7],> 100 µM
same,GI50,[8],> 100 µM
same,TGI,[8],> 100 µM
same,GI50,[9],> 100 µM
same,TGI,[9],> 100 µM
same,GI50,[10],> 100 µM
same,TGI,[10],> 100 µM
same,GI50,[11],> 100 µM
same,TGI,[11],> 100 µM
same,GI50,[12],> 100 µM
same,TGI,[12],> 100 µM
same,GI50,[13],> 100 µM
same,TGI,[13],> 100 µM
same,GI50,[14],> 100 µM
same,TGI,[14],> 100 µM
same,GI50,[53],> 100 µM
same,TGI,[53],> 100 µM
same,GI50,[15],> 100 µM
same,TGI,[15],> 100 µM
same,GI50,[16],> 100 µM
same,TGI,[16],> 100 µM
same,GI50,[17],> 100 µM
same,TGI,[17],> 100 µM
same,GI50,[18],> 100 µM
same,TGI,[18],> 100 µM
same,GI50,[19],> 100 µM
same,TGI,[19],> 100 µM
same,GI50,[21],> 100 µM
same,TGI,[21],> 100 µM
same,GI50,[22],> 100 µM
same,TGI,[22],> 100 µM
same,GI50,[23],> 100 µM
same,TGI,[23],> 100 µM
same,GI50,[24],> 100 µM
same,TGI,[24],> 100 µM
same,GI50,[26],> 100 µM
same,TGI,[26],> 100 µM
same,GI50,[54],> 100 µM
same,TGI,[54],> 100 µM
same,GI50,[27],87.1 µM
same,TGI,[27],> 100 µM
same,GI50,[55],> 100 µM
same,TGI,[55],> 100 µM
same,GI50,[28],> 100 µM
same,TGI,[28],> 100 µM
same,GI50,[29],55.9 µM
same,TGI,[29],> 100 µM
same,GI50,[30],> 100 µM
same,TGI,[30],> 100 µM
same,GI50,[31],> 100 µM
same,TGI,[31],> 100 µM
same,GI50,[32],> 100 µM
same,TGI,[32],> 100 µM
same,GI50,[56],> 100 µM
same,TGI,[56],> 100 µM
same,GI50,[34],> 100 µM
same,TGI,[34],> 100 µM
same,GI50,[35],> 100 µM
same,TGI,[35],> 100 µM
same,GI50,[36],> 100 µM
same,TGI,[36],> 100 µM
same,GI50,[37],> 100 µM
same,TGI,[37],> 100 µM
same,GI50,[38],> 100 µM
same,TGI,[38],> 100 µM
same,GI50,[39],> 100 µM
same,TGI,[39],> 100 µM
same,GI50,[40],> 100 µM
same,TGI,[40],> 100 µM
same,GI50,[41],> 100 µM
same,TGI,[41],> 100 µM
same,GI50,[57],> 100 µM
same,TGI,[57],> 100 µM
same,GI50,[42],> 100 µM
same,TGI,[42],> 100 µM
same,GI50,[43],> 100 µM
same,TGI,[43],> 100 µM
same,GI50,[44],> 100 µM
same,TGI,[44],> 100 µM
same,GI50,[45],> 100 µM
same,TGI,[45],> 100 µM
same,GI50,[46],> 100 µM
same,TGI,[46],> 100 µM
same,GI50,[47],> 100 µM
same,TGI,[47],> 100 µM
same,GI50,[48],> 100 µM
same,TGI,[48],> 100 µM
same,GI50,[49],> 100 µM
same,TGI,[49],> 100 µM
same,GI50,[50],> 100 µM
same,TGI,[50],> 100 µM
same,GI50,[51],> 100 µM
same,TGI,[51],> 100 µM
same,GI50,[52],> 100 µM
same,TGI,[52],> 100 µM
